Reference: US7767681B2, “2-Carbamide-4-phenylthiazole derivatives, preparation thereof and therapeutic use thereof” (sanofi-aventis, priority 2004, dated 2010)
Counter-ions that a name gives are not always drawn. Like-named read-outs stand apart in the source and are kept apart here.

Assays:
[1] = tested on: HIV-1 Bal virus; experiment: Inhibitory activity on PBMCs infected with HIV-1 Bal (reverse transcriptase in supernatant); assay type: cell-based; conditions: compounds in culture medium for 5 days, read-out: IC50 viral replication (amount of reverse transcriptase in the supernatant)
Protocol: The inhibitory activity of the compounds according to the invention was also measured on PBMCs (peripheral blood mononuclear cells) infected with the HIV-1 Bal virus, according to a technique adapted from that described by V. Dolle et al., J. Med. Chem., 2000, 43, 3949, 3962. According to this technique, the PBMCs are infected with HIV-1 Bal and the compounds to be tested are then added to the culture medium for 5 days. At the end of this exposure, the amount of reverse transcriptase in the supernatant is measured, which correlates with the level of viral replication in the cells.

[2] = molecular target: T1, human CCR2b receptor (Homo sapiens, UniProt P41597); experiment: Inhibitory activity on cells expressing the human CCR2b receptor; assay type: cell-based
T1 sequence (P41597 1-360 isoform P41597-2): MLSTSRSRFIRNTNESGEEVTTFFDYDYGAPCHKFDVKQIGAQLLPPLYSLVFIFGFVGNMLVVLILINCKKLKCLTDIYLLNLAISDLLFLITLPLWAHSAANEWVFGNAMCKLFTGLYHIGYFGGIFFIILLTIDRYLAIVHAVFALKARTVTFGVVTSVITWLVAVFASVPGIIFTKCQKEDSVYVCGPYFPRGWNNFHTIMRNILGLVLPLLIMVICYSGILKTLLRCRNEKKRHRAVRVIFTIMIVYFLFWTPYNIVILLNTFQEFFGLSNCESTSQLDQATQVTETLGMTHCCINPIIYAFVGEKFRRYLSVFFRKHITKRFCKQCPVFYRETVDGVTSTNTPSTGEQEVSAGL
Protocol: The inhibitory activity of the compounds according to the invention on cells expressing the human CCR2b receptor was measured.

[3] = tested on: human THP-1 monocyte cells; experiment: Inhibition of chemotaxis on human THP-1 monocyte cells; assay type: cell-based; conditions: read-out: IC50 inhibition of chemotaxis (hMCP-1)
Protocol: The inhibition of chemotaxis was also measured on human THP-1 monocyte cells (sold by DSMZ—Germany), using a technique adapted from that described by A. Albini et al., Cancer Res., 1987, 47, 3239-3245.
The inhibition of chemotaxis by the compounds according to the invention is a sign of their antagonistic activity on chemokine receptors, and in particular the CCR2b receptor.

[4] = read-out: IC50 of the activity of the CCR2b receptor

Compound | melting point [°C] | IC50 [2, 4] [nM] | further results
Cc1cn([C@H]2C[C@H](N=[N+]=[N-])[C@@H](CO)O2)c(=O)[nH]c1=O [AZT] | – | – | IC50 [1]: < 1000 nM
CCCc1ccc(OC)c(-c2csc(NC(=O)N3CCN(CCCN(CC)CC)CC3)n2)c1 (as salt: HCl) [Compound No. 14] | 145 | – | –
CCCc1ccc(OC)c(-c2csc(NC(=O)N3CCN(CCCN(CC)CC)CC3)n2)c1 [Compound No. 14] | – | 3.3 | –
hMCP-1: human monocyte chemotactic protein, CC chemokine, natural agonist of the CCR2b receptor [reference compound] | – | – | IC50 ([2]; read-out: IC50 of the activity of the CCR2b receptor (natural agonist hMCP-1)): 0.57 nM; IC50 [3]: 6 nM
COc1ccc(C2CCCC2)cc1-c1csc(NC(=O)N2CCN(CC3CCN(C)CC3)CC2)n1 [Compound No. 55] | 102 | 14 | –
